From patent US20240116985A1, “STAPLED PEPTIDES AND METHODS THEREOF” (priority 2020, published 2024)
Converted amounts (≈) assume the structure as drawn. Starred links: 1 amine or outer side, 2 acyl side, 3 side chain; linkers in the order of their positions; H or OH if unused. Non-standard residues stand in square brackets, D forms with d. Residues, ends and D or L forms follow the SMILES beside them. X2 = C=CCCCC(CCCC=C)(N[*:1])C(=O)[*:2]; Bta = N[C@@H](Cc1csc2ccccc12)C(=O)O; αAllylPro = C=CC[C@@]1(C(=O)O)CCCN1; S8 = C=CCCCCCC[C@](C)(N)C(=O)O

Tests used:
[1] = Solubility in PBS; assay type: physicochemical
Summary of the method: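 HPLC quantitation of peptide remaining in the PBS supernatant after ultracentrifugation, referenced to a 50 μM solution in DMSO.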

[2] = CHI Log D procedure; assay type: physicochemical; details: for CHI Log D: pH 7.4

Row | Structure (SMILES) | Solubility [1] [µM] | CHI Log D [2] | chromatographic logD ([2]; pH 7.4, CHI Log D)
1 | CC(=O)N1CCC[C@]12CC=CCCCC1(CCCC=CCCCCCC[C@@](C)(C(=O)N[C@@H](Cc3cn(C)cn3)C(=O)N[C@@H](Cc3csc4ccccc34)C(=O)N[C@@H](CCC(N)=O)C(N)=O)NC(=O)[C@H](CC(N)=O)NC(=O)[C@H](Cc3ccccc3)NC(=O)[C@H](C)NC(=O)[C@H](C)NC(=O)[C@H](CCC(=O)O)NC(=O)[C@H](CC(=O)O)NC1=O)NC(=O)[C@H](C)NC(=O)[C@H](CC(=O)O)NC2=O (stereo partly drawn) [I-440, Ac-PL3-Asp-Ala-B5-Asp-Glu-Ala-Ala-Phe-Asn-S8-1meH-BztA-Gln-NH2] | 50 (≈ 91.6 µg/mL) | 1.613 | 
2 | CC(=O)N1CCC[C@]12CC=CCCCC1(CCCC=CCCCCCC[C@@](C)(C(=O)N[C@@H](Cc3cccc(F)c3)C(=O)N[C@@H](Cc3c[nH]c4ccccc34)C(=O)N[C@@H](CCC(N)=O)C(N)=O)NC(=O)[C@H](CCC(N)=O)NC(=O)[C@H](Cc3ccsc3)NC(=O)[C@H](C)NC(=O)[C@H](C)NC(=O)[C@H](CCC(=O)O)NC(=O)[C@H](CC(=O)O)NC1=O)NC(=O)[C@H](C)NC(=O)[C@H](CC(=O)O)NC2=O (stereo partly drawn) [I-451, Ac-PL3-Asp-Ala-B5-Asp-Glu-Ala-Ala-3Thi-Gln-S8-3FF-Trp-Gln-NH2] | 50 (≈ 92.4 µg/mL) | 1.88 | 
3 | C=CC(=O)NC[C@H](NC(=O)[C@]1(C)CCCCCCC=CCCCC2(CCCC=CC[C@]3(CCCN3C(C)=O)C(=O)N[C@@H](CC(=O)O)C(=O)N[C@@H]([C@@H](C)CC)C(=O)N2)C(=O)N[C@@H](CC(=O)O)C(=O)N[C@@H](CC(=O)O)C(=O)N[C@@H](C)C(=O)N[C@@H](C)C(=O)N[C@@H](Cc2ccccc2)C(=O)N[C@@H](CCC(N)=O)C(=O)N1)C(=O)N[C@@H](Cc1csc2ccccc12)C(=O)N[C@@H](CCC(N)=O)C(N)=O (stereo partly drawn) [I-483, Ac-PL3-Asp-Ile-B5-Asp-Asp-Ala-Ala-Phe-Gln-S8-[Acryl]Dap-BztA-Gln-NH2] | 43 (≈ 80.1 µg/mL) | 1.845 | 
4 | C=CC(=O)NC[C@H](NC(=O)[C@]1(C)CCCCCCC=CCCCC2(CCCC=CC[C@]3(CCCN3C(C)=O)C(=O)N[C@@H](CC(=O)O)C(=O)N[C@@H]([C@@H](C)CC)C(=O)N2)C(=O)N[C@@H](CC(=O)O)C(=O)N[C@@H](CC(=O)O)C(=O)N[C@@H](C)C(=O)N[C@@H](C)C(=O)N[C@@H](Cc2ccccc2)C(=O)N[C@@H](CCC(N)=O)C(=O)N1)C(=O)N[C@@H](Cc1csc2ccccc12)C(=O)N[C@@H](CCC(N)=O)C(N)=O (stereo partly drawn) [I-484, Ac-PL3-Asp-Ile-B5-Asp-Asp-Ala-Ala-Phe-Gln-S8-[Acryl]Dap-BztA-Gln-NH2] | 45 (≈ 83.8 µg/mL) | 1.863 | 
5 | CC(=O)N1CCC[C@]12CC=CCCCC1(CCCC=CCCCCCC[C@@](C)(C(=O)N[C@@H](Cc3ccccc3)C(=O)N[C@@H](Cc3csc4ccccc34)C(=O)N[C@@H](CCC(N)=O)C(N)=O)NC(=O)[C@H](CCC(N)=O)NC(=O)[C@H](Cc3ccccc3)NC(=O)[C@H](C)NC(=O)[C@H](C)NC(=O)[C@H](CCC(=O)O)NC(=O)[C@H](CCO)NC1=O)NC(=O)[C@H](C)NC(=O)[C@H](CC(=O)O)NC2=O (stereo partly drawn) [I-496, Ac-PL3-Asp-Ala-B5-Hse-Glu-Ala-Ala-Phe-Gln-S8-Phe-BztA-Gln-NH2] | 41 (≈ 74.9 µg/mL) | 2.456 | 
6 | C=CCCCCCC[C@](C)(NC(=O)[C@H](CCC(N)=O)NC(=O)[C@H](Cc1ccccc1)NC(=O)[C@H](C)NC(=O)[C@H](C)NC(=O)[C@H](CC(=O)O)NC(=O)[C@H](CC(=O)O)NC(=O)C(CCCC=C)(CCCC=C)NC(=O)[C@H](C)NC(=O)[C@H](CC(=O)O)NC(=O)[C@]1(CC=C)CCCN1C(C)=O)C(=O)N[C@@H](Cc1ccccc1)C(=O)N[C@@H](Cc1csc2ccccc12)C(=O)N[C@@H](CCC(N)=O)C(N)=O [I-578, Ac-PL3-Asp-Ala-B5-Asp-Asp-Ala-Ala-Phe-Gln-S8-Phe-BztA-Gln-NH2] (Ac-[αAllylPro]DA[X2]DDAAFQ[S8]F[Bta]Q-NH2) | 50 (≈ 94.2 µg/mL) |  | 2.26

Other lines, results leading:

Row | Solubility [1] [µM] | CHI Log D [2] | chromatographic logD ([2]; pH 7.4, CHI Log D) | Structure (SMILES)
7 | 29 (≈ 53 µg/mL) | 2.6 |  | CC(=O)N1CCC[C@]12CC=CCCCC1(CCCC=CCCCCCC[C@@](C)(C(=O)N[C@@H](Cc3ccccc3)C(=O)N[C@@H](Cc3csc4ccccc34)C(=O)N[C@@H](CCC(N)=O)C(N)=O)NC(=O)[C@H](CCC(N)=O)NC(=O)[C@H](Cc3ccccc3)NC(=O)[C@H](C)NC(=O)[C@H](C)NC(=O)[C@H](CCC(=O)O)NC(=O)[C@H](CCO)NC1=O)NC(=O)[C@H](C)NC(=O)[C@H](CC(=O)O)NC2=O (stereo partly drawn) [I-497, Ac-PL3-Asp-Ala-B5-Hse-Glu-Ala-Ala-Phe-Gln-S8-Phe-BztA-Gln-NH2]
8 | 42 (≈ 76.7 µg/mL) | 2.637 |  | CC(=O)N1CCC[C@]12CC=CCCCC1(CCCC=CCCCCCC[C@@](C)(C(=O)N[C@@H](Cc3ccccc3)C(=O)N[C@@H](Cc3csc4ccccc34)C(=O)N[C@@H](CCC(N)=O)C(N)=O)NC(=O)[C@H](CCC(N)=O)NC(=O)[C@H](Cc3ccccc3)NC(=O)[C@H](C)NC(=O)[C@H](C)NC(=O)[C@H](CCC(=O)O)NC(=O)[C@H](CCO)NC1=O)NC(=O)[C@H](C)NC(=O)[C@H](CC(=O)O)NC2=O (stereo partly drawn) [I-498, Ac-PL3-Asp-Ala-B5-Hse-Glu-Ala-Ala-Phe-Gln-S8-Phe-BztA-Gln-NH2]
9 | 50 (≈ 93.8 µg/mL) | 2.854 |  | CC(=O)N1CCC[C@]12CC=CCCCC1(CCCC=CCCCCCC[C@@](C)(C(=O)N[C@@H](Cc3ccccc3)C(=O)N[C@@H](Cc3csc4ccccc34)C(=O)N[C@@H](CCC(N)=O)C(N)=O)NC(=O)[C@H](CC(N)=O)NC(=O)[C@H](Cc3ccccc3)NC(=O)[C@H](C)NC(=O)[C@H](C)NC(=O)[C@H](CCC(=O)O)NC(=O)[C@H](CNS(C)(=O)=O)NC1=O)NC(=O)[C@H](C)NC(=O)[C@H](CC(=O)O)NC2=O (stereo partly drawn) [I-529, Ac-PL3-Asp-Ala-B5-[MeSO2]Dap-Glu-Ala-Ala-Phe-Asn-S8-Phe-BztA-Gln-NH2]
10 | 50 (≈ 93.8 µg/mL) | 2.935 |  | CC(=O)N1CCC[C@]12CC=CCCCC1(CCCC=CCCCCCC[C@@](C)(C(=O)N[C@@H](Cc3ccccc3)C(=O)N[C@@H](Cc3csc4ccccc34)C(=O)N[C@@H](CCC(N)=O)C(N)=O)NC(=O)[C@H](CC(N)=O)NC(=O)[C@H](Cc3ccccc3)NC(=O)[C@H](C)NC(=O)[C@H](C)NC(=O)[C@H](CCC(=O)O)NC(=O)[C@H](CNS(C)(=O)=O)NC1=O)NC(=O)[C@H](C)NC(=O)[C@H](CC(=O)O)NC2=O (stereo partly drawn) [I-530, Ac-PL3-Asp-Ala-B5-[MeSO2]Dap-Glu-Ala-Ala-Phe-Asn-S8-Phe-BztA-Gln-NH2]
11 | 43 (≈ 81.3 µg/mL) | 2.794 |  | CC(=O)N1CCC[C@]12CC=CCCCC1(CCCC=CCCCCCC[C@@](C)(C(=O)N[C@@H](Cc3ccccc3)C(=O)N[C@@H](Cc3csc4ccccc34)C(=O)N[C@@H](CCC(N)=O)C(N)=O)NC(=O)[C@H](CC(N)=O)NC(=O)[C@H](Cc3ccccc3)NC(=O)[C@H](C)NC(=O)[C@H](C)NC(=O)[C@H](CCC(=O)O)NC(=O)[C@H](CCNS(C)(=O)=O)NC1=O)NC(=O)[C@H](C)NC(=O)[C@H](CC(=O)O)NC2=O (stereo partly drawn) [I-531, Ac-PL3-Asp-Ala-B5-[MeSO2]Dab-Glu-Ala-Ala-Phe-Asn-S8-Phe-BztA-Gln-NH2]
12 | 42 (≈ 79.4 µg/mL) | 2.858 |  | CC(=O)N1CCC[C@]12CC=CCCCC1(CCCC=CCCCCCC[C@@](C)(C(=O)N[C@@H](Cc3ccccc3)C(=O)N[C@@H](Cc3csc4ccccc34)C(=O)N[C@@H](CCC(N)=O)C(N)=O)NC(=O)[C@H](CC(N)=O)NC(=O)[C@H](Cc3ccccc3)NC(=O)[C@H](C)NC(=O)[C@H](C)NC(=O)[C@H](CCC(=O)O)NC(=O)[C@H](CCNS(C)(=O)=O)NC1=O)NC(=O)[C@H](C)NC(=O)[C@H](CC(=O)O)NC2=O (stereo partly drawn) [I-532, Ac-PL3-Asp-Ala-B5-[MeSO2]Dab-Glu-Ala-Ala-Phe-Asn-S8-Phe-BztA-Gln-NH2]
